Results on 14 compounds are retold here after patent EP4678638A1, “NEW E3 UBIQUITIN LIGASE LIGAND, PROTEIN DEGRADATION AGENT AND USE THEREOF” (priority 2023, dated 2024).

Experiment [1] addresses T1, CDK6 (Homo sapiens, UniProt Q00534).
T1 construct: evaluate the effects of the compounds of the present disclosure on the expression of target proteins in cells; endogenous in cells; host or cells: MDA-MB-231
Description: Western blot degradation of CDK6 (MDA-MB-231 Cell). It is filed as cell-based. Conditions: Table D3. On the procedure:
(§1) Conventional Western blot assay was performed to evaluate the effects of the compounds of the present disclosure on the expression of target proteins in cells.
(§2) (1) Cell Seeding and Protein Harvesting: The selected cells were processed according to the cell seeding procedure and protein harvesting procedure in Table III-2. Table III-2 Cell Seeding and Protein Harvesting Procedures
(§3) (2) To the collected supernatant, 5X SDS sample loading buffer was added, followed by denaturation at 95°C for 5 minutes. The denatured samples were then separated by SDS-PAGE electrophoresis on a polyacrylamide gel. Proteins were transferred to a nitrocellulose membrane (0.45 µm NC membrane), blocked with blocking buffer at room temperature for 1 hour, and subjected to antibody incubation and development procedures according to the antibody manufacturer's instructions (Cell Signaling Technology).
(§4) Half-Maximal Degradation Concentration value (the drug concentration required for degrading proteins by 50%, abbreviated as DC50) reads method: comparing the grayscale values of Western blot bands from drug-treated samples with those from blank DMSO-treated controls, and identifying the drug concentration range at which the grayscale value is half that of the DMSO-treated control bands.
(§5) DC50 values can be calculated using ImageJ software to measure grayscale values of Western blot bands from drug-treated samples. The concentration-response curve is fitted to estimate the drug concentration corresponding to half the grayscale value.
(§6) Target protein remaining (%) refers to the percentage of target protein remaining in hPBMC cells after treatment with protein degrader compounds.
(§7) Calculation method for target protein remaining (%): Use ImageJ software to measure grayscale values of Western blot bands from drug (protein degrader)-treated samples. The grayscale value of drug-treated bands is divided by that of internal control protein bands, and the resulting quotient is normalized to obtain the relative percentage of remaining target protein after protein degrader treatment.
(§8) Target protein degradation rate (%) = 100% - target protein remaining (%).

The target in experiment [2] is T2, CDK4 (Homo sapiens, UniProt P11802).
T2 construct: evaluate the effects of the compounds of the present disclosure on the expression of target proteins in cells; endogenous in cells; host or cells: MDA-MB-231
T2 sequence (P11802 whole entry): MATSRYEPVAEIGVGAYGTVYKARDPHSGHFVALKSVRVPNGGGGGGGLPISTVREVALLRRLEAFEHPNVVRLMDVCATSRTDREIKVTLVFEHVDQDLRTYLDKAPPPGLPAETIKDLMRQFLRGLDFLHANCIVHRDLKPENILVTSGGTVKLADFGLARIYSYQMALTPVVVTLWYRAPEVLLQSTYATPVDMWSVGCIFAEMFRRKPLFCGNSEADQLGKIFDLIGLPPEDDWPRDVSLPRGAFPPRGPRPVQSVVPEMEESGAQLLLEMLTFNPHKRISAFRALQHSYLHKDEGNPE
Description: Western blot degradation of CDK4 (MDA-MB-231 Cell). The experiment is classed as cell-based. Conditions: Table D3. On the procedure:
as §1, §2, §3, §4, §5, §6, §7, §8
On the technique in general: Immunoblotting shows a protein as a band on a membrane.

SMILES strings stand for the structures.

T1 sequence (Q00534 whole entry): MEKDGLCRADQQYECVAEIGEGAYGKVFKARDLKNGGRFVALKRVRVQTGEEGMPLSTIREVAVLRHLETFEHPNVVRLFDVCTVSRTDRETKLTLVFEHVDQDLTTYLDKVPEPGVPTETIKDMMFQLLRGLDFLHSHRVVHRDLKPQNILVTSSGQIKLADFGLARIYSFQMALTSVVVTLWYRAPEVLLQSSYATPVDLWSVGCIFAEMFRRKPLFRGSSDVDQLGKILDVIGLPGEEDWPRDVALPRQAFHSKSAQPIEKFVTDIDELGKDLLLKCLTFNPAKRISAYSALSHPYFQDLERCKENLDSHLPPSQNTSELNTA

In the case of `CN(C)C(=O)c1cc2cnc(Nc3ccc(N4CCN(Cc5ccc(N6CCC(=O)NC6=O)cn5)CC4)cn3)nc2n1C1CCCC1` [GT-06342, 7-cyclopentyl-2-((5-(4-((5-(2,4-dioxotetrahydropyrimidin-1(2H)-yl)pyridin-2-yl)methyl)piperazin-1-yl)pyridin-2-yl)amino)-N,N-dimethyl-7H-pyrrolo[2,3-d]pyrimidine-6-carboxamide], the “Degradation of substrate protein CDK6 (substrate protein remaining %)” value in experiment [1] is “A (A is defined as 0% ≤ substrate protein remaining % ≤ 80%)”. Besides, in experiment [2], the “Degradation of substrate protein CDK4 (substrate protein remaining %)” value was “A (A is defined as 0% ≤ substrate protein remaining % ≤ 80%)”.
`CN(C)C(=O)c1cc2cnc(Nc3ccc(N4CCN(Cc5ccc(N6CCC(=O)NC6=O)nc5)CC4)cn3)nc2n1C1CCCC1` [GT-06343, 7-cyclopentyl-2-((5-(4-((6-(2,4-dioxotetrahydropyrimidin-1(2H)-yl)pyridin-3-yl)methyl)piperazin-1-yl)pyridin-2-yl)amino)-N,N-dimethyl-7H-pyrrolo[2,3-d]pyrimidine-6-carboxamide]: the “Degradation of substrate protein CDK6 (substrate protein remaining %)” value in experiment [1] is on record as “A (A is defined as 0% ≤ substrate protein remaining % ≤ 80%)”. In experiment [2], the “Degradation of substrate protein CDK4 (substrate protein remaining %)” value is “A (A is defined as 0% ≤ substrate protein remaining % ≤ 80%)”.
On to `CN(C)C(=O)c1cc2cnc(Nc3ccc(N4CCN(Cc5cccc(NC6CCC(=O)NC6=O)c5)CC4)cn3)nc2n1C1CCCC1` (stereo not shown) [GT-06344, 7-cyclopentyl-2-((5-(4-(3-((2,6-dioxopiperidin-3-yl)amino)benzyl)piperazin-1-yl)pyridin-2-yl)amino)-N,N-dimethyl-7H-pyrrolo[2,3-d]pyrimidine-6-carboxamide], for which, in experiment [1], the “Degradation of substrate protein CDK6 (substrate protein remaining %)” value is given as “A (A is defined as 0% ≤ substrate protein remaining % ≤ 80%)”. Moreover, in experiment [2], the “Degradation of substrate protein CDK4 (substrate protein remaining %)” value is “B (B is defined as substrate protein remaining % > 80%)”.
The corresponding values for `CN(C)C(=O)c1cc2cnc(Nc3ccc(N4CCC(N(C)Cc5ccc(C6CCC(=O)NC6=O)cc5)CC4)cn3)nc2n1C1CCCC1` (stereo not shown) [GT-06490, 7-cyclopentyl-2-((5-(4-((4-(2,6-dioxopiperidin-3-yl)benzyl)(methyl)amino)piperidin-1-yl)pyridin-2-yl)amino)-N,N-dimethyl-7H-pyrrolo[2,3-d]pyrimidine-6-carboxamide] are “B (B is defined as substrate protein remaining % > 80%)” and “A (A is defined as 0% ≤ substrate protein remaining % ≤ 80%)”.
`CN(C)C(=O)c1cc2cnc(Nc3ccc(N4CCC(N(C)Cc5ccc(N6CCC(=O)NC6=O)cc5)CC4)cn3)nc2n1C1CCCC1` [GT-06491, 7-cyclopentyl-2-((5-(4-((4-(2,4-dioxotetrahydropyrimidin-1(2H)-yl)benzyl)(methyl)amino)piperidin-1-yl)pyridin-2-yl)amino)-N,N-dimethyl-7H-pyrrolo[2,3-d]pyrimidine-6-carboxamide]: the “Degradation of substrate protein CDK6 (substrate protein remaining %)” value in experiment [1] is on record as “A (A is defined as 0% ≤ substrate protein remaining % ≤ 80%)”. Further, the “Degradation of substrate protein CDK4 (substrate protein remaining %)” value in experiment [2] is on record as “B (B is defined as substrate protein remaining % > 80%)”.
The corresponding values for `CN(C)C(=O)c1cc2cnc(Nc3ccc(N4CCC(N(C)Cc5cccc(N6CCC(=O)NC6=O)c5)CC4)cn3)nc2n1C1CCCC1` [GT-06492, 7-cyclopentyl-2-((5-(4-((3-(2,4-dioxotetrahydropyrimidin-1(2H)-yl)benzyl)(methyl)amino)piperidin-1-yl)pyridin-2-yl)amino)-N,N-dimethyl-7H-pyrrolo[2,3-d]pyrimidine-6-carboxamide] are “A (A is defined as 0% ≤ substrate protein remaining % ≤ 80%)” and “B (B is defined as substrate protein remaining % > 80%)”.
For `CN(C)C(=O)c1cc2cnc(Nc3ccc(N4CCC(N(C)Cc5ccc(N6CCC(=O)NC6=O)cn5)CC4)cn3)nc2n1C1CCCC1` [GT-06493, 7-cyclopentyl-2-((5-(4-(((5-(2,4-dioxotetrahydropyrimidin-1(2H)-yl)pyridin-2-yl)methyl)(methyl)amino)piperidin-1-yl)pyridin-2-yl)amino)-N,N-dimethyl-7H-pyrrolo[2,3-d]pyrimidine-6-carboxamide], in that order: “B (B is defined as substrate protein remaining % > 80%)” and “A (A is defined as 0% ≤ substrate protein remaining % ≤ 80%)”.
In the case of `CN(C)C(=O)c1cc2cnc(Nc3ccc(N4CCC(N(C)Cc5cccc(NC6CCC(=O)NC6=O)c5)CC4)cn3)nc2n1C1CCCC1` (stereo not shown) [GT-06495, 7-cyclopentyl-2-((5-(4-((3-((2,6-dioxopiperidin-3-yl)amino)benzyl)(methyl)amino)piperidin-1-yl)pyridin-2-yl)amino)-N,N-dimethyl-7H-pyrrolo[2,3-d]pyrimidine-6-carboxamide], the “Degradation of substrate protein CDK6 (substrate protein remaining %)” value in experiment [1] is given as “A (A is defined as 0% ≤ substrate protein remaining % ≤ 80%)”. Besides, in experiment [2], the “Degradation of substrate protein CDK4 (substrate protein remaining %)” value is given as “A (A is defined as 0% ≤ substrate protein remaining % ≤ 80%)”.
Consider `CC(=O)c1c(C)c2cnc(Nc3ccc(N4CCN(Cc5ccc(N6CCC(=O)NC6=O)cc5)CC4)cn3)nc2n(C2CCCC2)c1=O` [GT-06576, 1-(4-((4-(6-((6-acetyl-8-cyclopentyl-5-methyl-7-oxo-7,8-dihydropyrido[2,3-d]pyrimidin-2-yl)amino)pyridin-3-yl)piperazin-1-yl)methyl)phenyl)dihydropyr imidine-2,4(1H,3H)-dione], for which the “Degradation of substrate protein CDK6 (substrate protein remaining %)” value in experiment [1] is recorded as “A (A is defined as 0% ≤ substrate protein remaining % ≤ 80%)”. Besides, in experiment [2], the “Degradation of substrate protein CDK4 (substrate protein remaining %)” value was “A (A is defined as 0% ≤ substrate protein remaining % ≤ 80%)”.
For `CC(=O)c1c(C)c2cnc(Nc3ccc(N4CCN(Cc5ccc(N6CCC(=O)NC6=O)nc5)CC4)cn3)nc2n(C2CCCC2)c1=O` [GT-06579, 1-(5-((4-(6-((6-acetyl-8-cyclopentyl-5-methyl-7-oxo-7,8-dihydropyrido[2,3-d]pyrimidin-2-yl)amino)pyridin-3-yl)piperazin-1-yl)methyl)pyridin-2-yl)dihydropyrimidine-2,4(1H,3H)-dione], in experiment [1], the “Degradation of substrate protein CDK6 (substrate protein remaining %)” value was “A (A is defined as 0% ≤ substrate protein remaining % ≤ 80%)”. The “Degradation of substrate protein CDK4 (substrate protein remaining %)” value in experiment [2] is “B (B is defined as substrate protein remaining % > 80%)”.
For `CN(C)C(=O)c1cc2cnc(Nc3ccc(N4CCN(Cc5cc(N6CCC(=O)NC6=O)ncc5F)CC4)cn3)nc2n1C1CCCC1` [GT-07474, 7-cyclopentyl-2-((5-(4-((2-(2,4-dioxotetrahydropyrimidin-1(2H)-yl)-5-fluoropyridin-4-yl)methyl)piperazin-1-yl)pyridin-2-yl)amino)-N,N-dimethyl-7H-pyrrolo[2,3-d]pyrimidine-6-carboxamide], in that order: “A (A is defined as 0% ≤ substrate protein remaining % ≤ 80%)” and “A (A is defined as 0% ≤ substrate protein remaining % ≤ 80%)”.
The corresponding values for `CN(C)C(=O)c1cc2cnc(Nc3ccc(N4CCN(Cc5ccnc(C6CCC(=O)NC6=O)c5)CC4)cn3)nc2n1C1CCCC1` (stereo not shown) [GT-07478, 7-cyclopentyl-2-((5-(4-((2-(2,6-dioxopiperidin-3-yl)pyridin-4-yl)methyl)piperazin-1-yl)pyridin-2-yl)amino)-N,N-dimethyl-7H-pyrrolo[2,3-d]pyrimidine-6-carboxamide] are “A (A is defined as 0% ≤ substrate protein remaining % ≤ 80%)” and “A (A is defined as 0% ≤ substrate protein remaining % ≤ 80%)”.
Take `CC(=O)c1c(C)c2cnc(Nc3ccc(N4CCN(Cc5cc(N6CCC(=O)NC6=O)ncc5F)CC4)cn3)nc2n(C2CCCC2)c1=O` [GT-07480, 1-(4-((4-(6-((6-acetyl-8-cyclopentyl-5-methyl-7-oxo-7,8-dihydropyrido[2,3-d]pyrimidin-2-yl)amino)pyridin-3-yl)piperazin-1-yl)methyl)-5-fluoropyridin-2-yl)dihydropyrimidine-2,4(1H,3H)-dione]: the “Degradation of substrate protein CDK6 (substrate protein remaining %)” value in experiment [1] was “A (A is defined as 0% ≤ substrate protein remaining % ≤ 80%)”. The “Degradation of substrate protein CDK4 (substrate protein remaining %)” value in experiment [2] is reported as “A (A is defined as 0% ≤ substrate protein remaining % ≤ 80%)”.
As for `CC(=O)c1c(C)c2cnc(Nc3ccc(N4CCN(Cc5ccnc(N6CCC(=O)NC6=O)c5)CC4)cn3)nc2n(C2CCCC2)c1=O` [GT-07481, 1-(4-((4-(6-((6-acetyl-8-cyclopentyl-5-methyl-7-oxo-7,8-dihydropyrido[2,3-d]pyrimidin-2-yl)amino)pyridin-3-yl)piperazin-1-yl)methyl)pyridin-2-yl)dihydropyrimidine-2,4(1H,3H)-dione], in experiment [1], the “Degradation of substrate protein CDK6 (substrate protein remaining %)” value is “A (A is defined as 0% ≤ substrate protein remaining % ≤ 80%)”. Moreover, the “Degradation of substrate protein CDK4 (substrate protein remaining %)” value in experiment [2] is listed as “A (A is defined as 0% ≤ substrate protein remaining % ≤ 80%)”.
